“And” between values parts separate entries of the source, which are not always exact repeats. Identical values can stand only once.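 Grown in 96-well plates, cells were treated for 48 hours with each compound at five concentrations. Insufficient inhibition: endpoint recorded as highest concentration tested. GI50 = concentration required for 50% inhibition of growth. TGI: total growth inhibition.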
How the values were obtained:
Assay in all cases: DTP human tumour cell line panel, 48 h
[1] = test system: 786-0 renal
[2] = test system: ACHN renal
[3] = test system: CCRF-CEM leukemia
[4] = test system: HCT-15 colon
[5] = test system: HOP-62 NSCLC
[6] = test system: OVCAR-5 ovarian
[7] = test system: SF-295 CNS
[8] = test system: SN12C renal
[9] = test system: TK-10 renal
[10] = test system: UACC-62 melanoma

CCc1n(Cc2ccc3ccccc3c2)cc[n+]1Cc1ccc2ccccc2c1
GI50 [1]: 1.52 µM
TGI [1]: 3.04 µM
GI50 [2]: 2.87 µM
TGI [2]: 10 µM
GI50 [3]: 0.922 µM
TGI [3]: 4.34 µM
GI50 [4]: 3.94 µM
TGI [4]: 15.3 µM
GI50 [5]: 1.42 µM
TGI [5]: 3.65 µM
GI50 [6]: 1.2 µM
TGI [6]: 2.75 µM
GI50 [7]: 1.43 µM
TGI [7]: 4 µM
GI50 [8]: 0.572 µM
TGI [8]: 2.12 µM
GI50 [9]: 1.65 µM
TGI [9]: 3.32 µM
GI50 [10]: 0.507 µM
TGI [10]: 2 µM

O=C1C=C(c2ccccc2)NC1(c1ccccc1)c1cc(-c2ccccc2)[nH]c1-c1ccccc1 (stereo not drawn)
TGI [1]: > 100 µM
TGI [2]: > 100 µM
TGI [3]: > 100 µM
TGI [4]: > 100 µM
TGI [5]: 19 µM
TGI [7]: > 100 µM
TGI [8]: > 100 µM
TGI [10]: > 100 µM

C[C@H]1CCC/C=C/[C@@H]2C[C@H](O)C[C@H]2[C@H](O)C(O)C(O)C(=O)O1 (stereo partly drawn)
GI50 [1]: 0.788 µM
TGI [1]: > 100 µM
GI50 [2]: 3.43 µM
TGI [2]: 20.9 µM
GI50 [3]: 2.73 µM
TGI [3]: > 25.9 µM
GI50 [5]: 4.85 µM
TGI [5]: > 100 µM
GI50 [6]: 6.24 µM
TGI [6]: > 100 µM
GI50 [7]: 4.66 µM
TGI [7]: > 100 µM
GI50 [8]: 2.66 µM
TGI [8]: 7.63 µM
GI50 [9]: 6.42 µM
TGI [9]: > 100 µM
GI50 [10]: 1.07 µM

C(#Cc1ccccc1C#Cc1cnccn1)c1cnccn1
GI50 [1]: 30.5 µM
TGI [1]: > 100 µM
GI50 [2]: 19.2 µM
TGI [2]: > 68.9 µM
GI50 [3]: 32.3 µM
TGI [3]: > 100 µM
GI50 [4]: 17.5 µM
TGI [4]: 56 µM
GI50 [5]: 26.3 µM
TGI [5]: 85.8 µM
GI50 [6]: > 61.7 µM
TGI [6]: > 100 µM
GI50 [7]: 30.3 µM
TGI [7]: > 74 µM
GI50 [8]: 24.1 µM
TGI [8]: > 87.1 µM
GI50 [9]: 27.2 µM
TGI [9]: > 78.2 µM
GI50 [10]: 17.5 µM
TGI [10]: 51.4 µM

CN(C)Cc1c[nH]c2nc[nH]c(=O)c12
TGI [1]: 76.4 µM
TGI [2]: > 100 µM
TGI [3]: 51 µM
TGI [4]: > 100 µM
TGI [5]: > 100 µM
TGI [6]: > 100 µM
TGI [7]: > 100 µM
TGI [8]: > 100 µM
TGI [9]: > 100 µM
TGI [10]: 39.7 µM

COc1ccc(-c2cc(-c3ccco3)c(C#N)c(=O)n2C2OC(COC(C)=O)C(OC(C)=O)C(OC(C)=O)C2OC(C)=O)cc1 (stereo not drawn)
GI50 [1]: > 100 µM and 29.3 µM
TGI [1]: > 100 µM
GI50 [2]: > 100 µM and 31.1 µM
TGI [2]: > 100 µM
TGI [3]: > 100 µM
GI50 [4]: > 100 µM and 39 µM
TGI [4]: > 100 µM
GI50 [5]: > 100 µM and 23 µM
TGI [5]: > 100 µM and 79.2 µM
TGI [6]: > 100 µM
GI50 [7]: > 100 µM and 25.7 µM
TGI [7]: > 100 µM
GI50 [8]: > 100 µM and 18.9 µM
TGI [8]: > 100 µM and 55.2 µM
TGI [9]: > 100 µM and 78.4 µM
GI50 [10]: > 100 µM and 17.2 µM
TGI [10]: > 100 µM

Nc1ccccc1SC(CC(=O)c1ccccc1)c1c(Cl)cccc1Cl (stereo not drawn)
GI50 [1]: 9.73 µM
TGI [1]: 23.2 µM
GI50 [2]: 2.16 µM
TGI [2]: 5.6 µM
GI50 [3]: 2.67 µM
TGI [3]: 8.49 µM
GI50 [4]: 2.08 µM
TGI [4]: 5.92 µM
GI50 [5]: 6.82 µM
TGI [5]: 27.7 µM
GI50 [6]: 4.29 µM
TGI [6]: 15.7 µM
GI50 [7]: 5.59 µM
TGI [7]: 19.1 µM
GI50 [8]: 2.94 µM
TGI [8]: 11.5 µM
GI50 [9]: 4.71 µM
TGI [9]: 13.3 µM

NNC(=O)C(=O)N/N=C1\CCCC1C(=O)CCC(=O)Nc1cccc(Cl)c1 (stereo not drawn)
TGI [1]: > 100 µM
TGI [2]: > 100 µM
TGI [3]: > 100 µM
TGI [5]: > 100 µM
TGI [6]: > 100 µM
TGI [7]: > 100 µM
TGI [8]: > 100 µM
TGI [9]: > 100 µM
TGI [10]: > 100 µM

Cc1ccc(-c2csc3ncnc(Nc4cccc(O)c4)c23)cc1
GI50 [1]: 19.9 µM
TGI [1]: 42.8 µM
GI50 [3]: 21 µM
TGI [3]: 91.1 µM
GI50 [4]: 19.8 µM
TGI [4]: 44.5 µM
GI50 [5]: 21.8 µM
TGI [5]: 49.6 µM
GI50 [6]: 25.5 µM
TGI [6]: 69.6 µM
GI50 [7]: 2.13 µM
TGI [7]: 24.7 µM
GI50 [8]: 34.1 µM
TGI [8]: > 100 µM
GI50 [10]: 28 µM
TGI [10]: 73 µM

CCCOC(=O)C1C(c2ccc(OC)cc2)NC(c2ccc(OC)cc2)C(C(=O)OCCC)S1(=O)=O (stereo not drawn)
GI50 [1]: > 100 µM
TGI [1]: > 100 µM
GI50 [2]: > 100 µM
TGI [2]: > 100 µM
GI50 [4]: > 100 µM
TGI [4]: > 100 µM
GI50 [5]: > 100 µM
TGI [5]: > 100 µM
GI50 [6]: > 100 µM
TGI [6]: > 100 µM
GI50 [7]: > 100 µM
TGI [7]: > 100 µM
GI50 [8]: > 100 µM
TGI [8]: > 100 µM
GI50 [9]: > 100 µM
TGI [9]: > 100 µM
GI50 [10]: > 100 µM
TGI [10]: > 100 µM

CCOC(=O)CCC(NC(=O)c1ccc(Oc2nc3cc(N)cc(N)c3nc2-c2ccccc2)cc1)C(=O)OCC (stereo not drawn)
GI50 [1]: 89 µM
TGI [1]: > 100 µM
GI50 [2]: 28.5 µM
TGI [2]: > 100 µM
GI50 [3]: 12.4 µM
TGI [3]: > 100 µM
GI50 [4]: 34.3 µM
TGI [4]: > 100 µM
GI50 [5]: 36.6 µM
TGI [5]: 87.1 µM
GI50 [6]: 96.8 µM
TGI [6]: > 100 µM
GI50 [7]: 40.6 µM
TGI [7]: > 100 µM
GI50 [9]: > 100 µM
TGI [9]: > 100 µM
GI50 [10]: 16.1 µM
TGI [10]: 31 µM

O=C1CC2=CCCC2O1 (stereo not drawn)
TGI [1]: > 100 µM
TGI [3]: > 100 µM
TGI [4]: > 100 µM
TGI [5]: > 100 µM
TGI [7]: > 100 µM
TGI [8]: > 100 µM
TGI [9]: > 100 µM
TGI [10]: > 100 µM

O=C1CC[C@@H]2[C@H]3CCC(=O)c4c3c(c3cccc(O)c3c4O)O[C@@]23C(=O)c2cccc(O)c2C(O)=C13
GI50 [1]: > 100 µM
TGI [1]: > 100 µM
GI50 [2]: > 100 µM
TGI [2]: > 100 µM
GI50 [4]: > 100 µM
TGI [4]: > 100 µM
GI50 [5]: > 100 µM
TGI [5]: > 100 µM
GI50 [6]: > 100 µM
TGI [6]: > 100 µM
GI50 [8]: 61.4 µM
TGI [8]: > 100 µM
GI50 [9]: > 100 µM
TGI [9]: > 100 µM
GI50 [10]: > 100 µM
TGI [10]: > 100 µM

COC(=O)N1C=CC2=C(C)C3Nc4ccccc4C3C(C)=C2C1 (stereo not drawn)
TGI [1]: 2.16 µM
TGI [2]: 5.01 µM
TGI [3]: 15.9 µM
TGI [4]: 33.6 µM
TGI [5]: 12.6 µM
TGI [6]: > 100 µM
TGI [7]: 17.9 µM
TGI [9]: 7.24 µM
TGI [10]: 6.89 µM

CCOC(=O)C(c1ccsc1)P(=O)(OCC)OCC (stereo not drawn)
TGI [1]: 31.7 µM
TGI [2]: 53 µM
TGI [4]: 37.4 µM
TGI [5]: 52 µM
TGI [6]: 37.7 µM
TGI [7]: 34 µM
TGI [8]: 30.1 µM
TGI [9]: 41 µM
TGI [10]: 23.9 µM

From PubChem BioAssay (NCI)
